{"source": "patent EP0919233A1", "about": "“THERAPEUTIC AGENT FOR KIDNEY DISEASES” (KYOWA HAKKO KOGYO KABUSHIKI KAISHA, priority 1996, dated 1997)", "assay_type_in_all_cases": "in vivo", "key": {"Diabetic Nephropathy": {"tested_on": "Diabetic Nephropathy", "assay": "Effect on Increase of Albumin Excretion in Diabetic Nephropathy (streptozotocin-induced)", "conditions": "STZ-diabetic ddY-strain male mice, 24 hr urine twelve weeks after STZ, mean ± standard error, control group 333 ± 30, normal group 80 ± 3", "procedure": "In this test, ddY-strain male mice weighing 25-28 g were used. Diabetes was induced according to the method of Tsuchida, et al. [Jin To Toseki (Kidney and Dialysis), 31, 363-366 (1991)]. That is, streptozotocin (5 mg/ml, Sigma; hereinafter referred to as STZ) dissolved in 0.05 M citrate buffer was intravenously injected into mice through the tail vein at a dose of 10 ml/kg. On the fourth day after the STZ administration, 30 µl of blood was collected from the tail vein of the mice and the blood glucose was determined using Glutestsensor (Sanwa Kagaku). The animals were divided into three groups based on the blood glucose level. Twelve weeks after the STZ administration, each mouse was put into a metabolic cage and received oral administration of 0.5 ml/10 g of distilled water twice at an interval of 12 hours. Urine was collected for 24 hours, and after measurement of the volume, the urine was centrifuged under cooling (3000 rpm, 4°C) for 5 minutes. The supernatant was analyzed for urinary albumin content using an autoanalyzer (Olympus). A test compound was orally administered once a day for 11 weeks, starting on the fifth day after the STZ administration. […] Statistical significance was evaluated by Aspin-Welch's test for the difference between the control group and the normal group and by Steel's test for the difference between the control group and the test compound-administered group."}, "dd-strain male mice": {"tested_on": "dd-strain male mice", "assay": "Acute Toxicity Test (minimum lethal dose)", "conditions": "three mice per group, mortality observed seven days after administration", "procedure": "A test compound was orally or intraperitoneally administered to groups of dd-strain male mice weighing 20 ± 1 g, each group consisting of three mice. […] The MLD was >1000 mg/kg for oral administration of Compound 10 and was >100 mg/kg for intraperitoneal administration of Compound 10."}, "Masugi Nephritis": {"tested_on": "Masugi Nephritis", "assay": "Effect on Increase of Albumin Excretion in Masugi Nephritis", "conditions": "ddY-strain male mice, 1 mg/kg orally once a day from the previous immunization, 24 hr urine four weeks after second NT injection, mean ± standard error, n=11; control group 134 ± 9, normal group 85 ± 5", "procedure": "Mouse nephrotoxin (hereinafter referred to as NT) was prepared according to the method of Ito, et al. [The Japanese Journal of Nephrology, 23, 25-36 (1981)]. That is, glomerular basement membrane (hereinafter referred to as GBM) was isolated from mouse kidney and digested with trypsin (Sigma). The digested GBM was subjected to ultracentrifugation under cooling, and the supernatant was dialyzed against distilled water, followed by lyophilization. The lyophile product was intracutaneously injected as an antigen into four foot pads of a rabbit together with Freund's complete adjuvant (Iatron; hereinafter referred to as FCA) once a week for 4 weeks for immunization. The whole blood was drawn from the immunized rabbit, and serum was separated and inactivated at 56°C for 30 minutes to prepare NT.\nIn this test, ddY-strain male mice weighing 29-36 g were used. For previous immunization, 0.25 ml of an FCA emulsion containing 0.25 mg of rabbit immunoglobulin-globulin (IgG, Sigma) was intraperitoneally injected into mice. Nephritis was induced by intravenous injection of 0.075 ml of NT through the tail vein 4 and 11 days after the previous immunization. […] The supernatant was analyzed for urinary albumin content using an autoanalyzer (Olympus). […]\nThe results are shown in Table 5 as the means ± standard error of each group consisting of 11 mice. Statistical significance was evaluated by Student's t-test."}}}
{"compound": "CCOc1cc2nc(N3CCOCC3)nc(N3CCC(n4c(=O)c5cc(C)ccc5n(C)c4=O)CC3)c2cc1OCC.Cl", "note": "[Compound 10, 3-[1-(6,7-Diethoxy-2-morpholino-4-quinazolinyl)-4-piperidinyl]-1,2,3,4-tetrahydro-1,6-dimethyl-2,4-dioxoquinazoline hydrochloride]", "values": [{"measurement": "Urinary Albumin Content", "setting": "Diabetic Nephropathy; 1 mg/kg orally once a day for 11 weeks", "result": "244 ± 16", "unit": "mg/kg/24 hr"}, {"measurement": "Urinary Albumin Content", "setting": "Diabetic Nephropathy; 10 mg/kg orally once a day for 11 weeks", "result": "200 ± 13", "unit": "mg/kg/24 hr"}, {"measurement": "minimum lethal dose (MLD)", "setting": "dd-strain male mice; intraperitoneal administration", "result": "> 100", "unit": "mg/kg"}, {"measurement": "minimum lethal dose (MLD)", "setting": "dd-strain male mice; oral administration", "result": "> 1000", "unit": "mg/kg"}, {"measurement": "Urinary Albumin Content", "setting": "Masugi Nephritis", "result": "96 ± 7", "unit": "mg/kg/24 hr"}]}
